{"source": "patent US5650173A", "about": "“Preparation of biodegradable microparticles containing a biologically active agent” (Alkermes Controlled Therapeutics Inc. II, priority 1996, dated 1997)", "key": {"[1]": {"assay": "In Vitro Dissolution of norethindrone (NET) microparticles", "type": "physicochemical", "settings": "ethyl acetate alone as solvent; b93: extreme ethyl acetate contents in quench; quench volume varied"}, "[2]": {"assay": "Solubility of risperidone in receiving medium for in vitro dissolution", "settings": "50 mm tris buffer, pH 7.4, aqueous buffer", "excerpt": "Real time and accelerated methodologies were used. The equipment consisted of a Hanson research 6-cell USP paddle (Method II) dissolution apparatus interfaced with a spectrophotometer and data station. Receiving media were continuously recirculated from each cell to flow cells inside the spectrophotometer. The absorbance of the receiving media was monitored at 236 nm for quantification of risperidone.\nThe real time model measured the release rates of microparticles into a receiving medium consisting of 50 mM tris buffer at pH 7.4 at 37° C. […] The amount of risperidone was kept below 20% of saturation to provide infinite sink conditions."}}, "note": "“Also recorded” adds a separate entry of the source."}
{"smiles": "C#C[C@]1(O)CC[C@H]2[C@@H]3CCC4=CC(=O)CC[C@@H]4[C@H]3CC[C@@]21C", "note": "[NET, norethindrone]", "values": [{"measurement": "in vitro release rate from microparticles", "setting": "[1]", "value": "Higher than normal release rates; also recorded: quicker release; also recorded: varies slightly"}]}
{"smiles": "Cc1nc2n(c(=O)c1CCN1CCC(c3noc4cc(F)ccc34)CC1)CCCC2", "note": "[Risperidone, risperidone]", "values": [{"measurement": "solubility", "setting": "[2]", "value": "≥ 500", "unit": "µg/mL"}]}
